Data as given in ChEMBL document CHEMBL1201862, “PubChem BioAssay data set” (2004).
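Exposure lasted 48 hours, with cells grown in 96-well plates and compounds tested at five concentrations. GI50: concentration for 50% inhibition of growth.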 Activity calls are given as the source filed them. Rule as the data show it: active = GI50 up to about 1.1 µM and inactive = higher.

Assays:
Test in all cases: NCI tumour cell line growth inhibition, 48 h
[1] = system: SF-539
[2] = system: HOP-92
[3] = system: K562
[4] = system: Hs-578T
[5] = system: PC-3
[6] = system: MDA-N
[7] = system: NCI/ADR-RES
[8] = system: OVCAR-3
[9] = system: NCI-H522
[10] = system: LOX IMVI
[11] = system: U-251
[12] = system: Malme-3M
[13] = system: SNB-19
[14] = system: RPMI-8226
[15] = system: UACC-257
[16] = system: SK-OV-3
[17] = system: HOP-62
[18] = system: OVCAR-8
[19] = system: BT-549

Structure (SMILES)	GI50 [1]	GI50 [2]	GI50 [3]	GI50 [4]	GI50 [5]	GI50 [6]	GI50 [7]	GI50 [8]	GI50 [9]	GI50 [10]	GI50 [11]	GI50 [12]	GI50 [13]	GI50 [14]	GI50 [15]	GI50 [16]	GI50 [17]	GI50 [18]	GI50 [19]
CCOC(=O)C(NC(C)=O)(Nc1ccc(S(N)(=O)=O)cc1)C(F)(F)F (stereo not drawn)	> 100 µM (inactive)	> 100 µM (inactive)	> 100 µM (inactive)	> 100 µM (inactive)	> 100 µM (inactive)	> 100 µM (inactive)	> 100 µM (inactive)	> 100 µM (inactive)	> 100 µM (inactive)	> 100 µM (inactive)	> 100 µM (inactive)	> 100 µM (inactive)	> 100 µM (inactive)	> 100 µM (inactive)	> 100 µM (inactive)	> 100 µM (inactive)	> 100 µM (inactive)	> 100 µM (inactive)	
C[C@]12CCC3c4ccc(O)cc4CC[C@H]3C1CC(=O)NC2=O (stereo partly drawn)	> 10 µM (inactive)	> 10 µM (inactive)	> 10 µM (inactive)		> 10 µM (inactive)	> 10 µM (inactive)	> 10 µM (inactive)	> 10 µM (inactive)		> 10 µM (inactive)	> 10 µM (inactive)	> 10 µM (inactive)	> 10 µM (inactive)	> 10 µM (inactive)	> 10 µM (inactive)	> 10 µM (inactive)	> 10 µM (inactive)	> 10 µM (inactive)	> 10 µM (inactive)
O=C(/C=C/c1ccccc1)NNC(=O)c1c(Cl)c(Cl)c(Cl)c(Cl)c1-c1nc2ccccc2[nH]1	22.3 µM (inactive)	18.7 µM (inactive)	25.2 µM (inactive)		32.5 µM (inactive)	11.3 µM (inactive)	23.2 µM (inactive)	28.4 µM (inactive)	24.6 µM (inactive)	27.1 µM (inactive)		26.5 µM (inactive)		26.9 µM (inactive)	27.7 µM (inactive)	0.0453 µM (active)	0.0442 µM (active)	32 µM (inactive)	28.2 µM (inactive)
CC1(C)CC(=O)C(=CNc2nc(-c3ccccc3)cs2)C(=O)C1	26.4 µM (inactive)	71 µM (inactive)			38.6 µM (inactive)	30.1 µM (inactive)	34.4 µM (inactive)	40.7 µM (inactive)		> 100 µM (inactive)	29.3 µM (inactive)		71.4 µM (inactive)		35.1 µM (inactive)	> 100 µM (inactive)	34.2 µM (inactive)	48.6 µM (inactive)	
O=C(Nc1ccc(S(=O)(=O)Nc2ncccn2)cc1)c1c2ccccc2nc2ccccc12	> 100 µM (inactive)	> 100 µM (inactive)	> 100 µM (inactive)		> 100 µM (inactive)	> 100 µM (inactive)	> 100 µM (inactive)	> 100 µM (inactive)	> 100 µM (inactive)	> 100 µM (inactive)	> 100 µM (inactive)	> 100 µM (inactive)	> 100 µM (inactive)	> 100 µM (inactive)	> 100 µM (inactive)	> 100 µM (inactive)	> 100 µM (inactive)	> 100 µM (inactive)	> 100 µM (inactive)
O=C1CCCC[C@H]1[C@H]1CCC[C@@H]([C@H]2CCCCC2=O)C1=O	> 100 µM (inactive)	> 100 µM (inactive)	> 100 µM (inactive)					> 100 µM (inactive)	> 100 µM (inactive)	> 100 µM (inactive)	> 100 µM (inactive)	> 100 µM (inactive)	> 100 µM (inactive)	> 100 µM (inactive)	> 100 µM (inactive)	> 100 µM (inactive)	> 100 µM (inactive)		
C/C(=N\Nc1nc2ccccc2s1)c1cc2ccccc2cn1	3.83 µM (inactive)	8.63 µM (inactive)			5.42 µM (inactive)	8.69 µM (inactive)	3.25 µM (inactive)	1.65 µM (inactive)	4.78 µM (inactive)	2.49 µM (inactive)	4.68 µM (inactive)	4.61 µM (inactive)	13.6 µM (inactive)	3.21 µM (inactive)	3.55 µM (inactive)	3.15 µM (inactive)	3.2 µM (inactive)	2.84 µM (inactive)	6.05 µM (inactive)
OC1(c2ccccc2)CCCCCCCCC(O)(c2ccccc2)CCCCCCCC1 (stereo not drawn)	> 100 µM (inactive)	> 100 µM (inactive)	> 100 µM (inactive)		> 100 µM (inactive)	> 100 µM (inactive)	> 100 µM (inactive)	> 100 µM (inactive)	> 100 µM (inactive)	> 100 µM (inactive)	> 100 µM (inactive)	> 100 µM (inactive)	> 100 µM (inactive)		> 100 µM (inactive)	> 100 µM (inactive)	> 100 µM (inactive)	> 100 µM (inactive)	
